Experimental findings from patent publication US11136296B2, “Substituted N-arylethyl-2-arylquinoline-4-carboxamides and use thereof” (Bayer Aktiengesellschaft, priority 2017, dated 2021) are described below.

The target of assay [1] is FP receptor (Homo sapiens (Human), UniProt P43088). Put plainly: In vitro test of inhibition of human FP receptor activity (PGF2α-induced calcium flux in FP-expressing CHEM1 cells). Format: cell-based. The following applies: PGF2α-induced (2 nM) calcium flux in FP-expressing CHEM1 cells; some as mean values from multiple determinations. From the text: Table 1 below lists the IC50 values from this assay for individual working examples of the invention (some as mean values from multiple independent individual determinations): […]
Background: A change in cytosolic calcium serves as a functional read-out for many receptors and channels.

In assay [2] the test system is fluprostenol-induced mechanical sensitivity. The experiment in a line: Effects of FP antagonists on mechanical sensitivity (von Frey test, fluprostenol-induced mechanical allodynia). Format: in vivo, mouse. To be noted: for 50% Paw Response Threshold, mean: Ex. 153 90 mg/kg PO, male ND4 mice; for effect on 50% Paw Response Thresholds compared to vehicle-treated animals: group treated with […] fluprostenol, oral 90 mg/kg. Here is the method: B-24. Effects of FP Antagonists on Mechanical Sensitivity (Peripheral, Mouse)
Mechanical allodynia was examined using the von Frey test on the injected and uninjected rear paws several times after the injection.
Mechanical allodynia was measured with […] (Stölting©; Wood Dale, Ill., USA) having different stiffness (0.04; 0.07; 0.16; 0.4; 1.0. 4.0 and 8.0 g) by the up-down method (Chaplan et al., J. Neurosci. Meth. 1994, 53, 56-63). Intact male ND4 mice (30 g, 10 animals per group) were placed in individual acrylic chambers on a metal grid surface, and were allowed to get used to their environment for at least 15 minutes before the testing. Each filament was pressed with sufficient force at right angles to the underside of the paw, in order to cause slight bending against the paw, and was held for about 6 seconds or until a positive response was registered (paw quickly withdrawn). The testing was commenced with the 0.4 g filament. If the paw was not withdrawn, the next strongest stimulus was used. In the case that the paw was withdrawn, the next weakest stimulus was used. This process was repeated until up to 4 responses had been obtained after the initial change in response (no response after positive response or positive response after no response). […] The 50% paw response threshold was calculated using the following formula:
[formula] • Xf=value (in logarithmic units) of the last von Frey filament used • k=table value for the pattern of positive/negative responses (see Chaplan et al., J. Neurosci. Meth. 1994, 53, 56-63, Annex 1, page 62) • δ=average difference (in logarithmic units) between the stimuli
The mean and […] of the mean (SEM) was determined for each paw for each treatment group at each time point.
In order to assess the analgesic effect of an FP antagonist on fluprostenol-induced mechanical sensitivity, the test substance from Ex. 153 (90 mg/kg) was administered 2 hours before and 8 and 22 hours after the injection of fluprostenol. Ipsilateral and contralateral 50% paw response thresholds were examined prior to the administration of fluprostenol and 0.5, 2, 6 and 24 h after the administration.

Molecules are shown by their SMILES.

FP receptor, sequence (P43088 whole entry): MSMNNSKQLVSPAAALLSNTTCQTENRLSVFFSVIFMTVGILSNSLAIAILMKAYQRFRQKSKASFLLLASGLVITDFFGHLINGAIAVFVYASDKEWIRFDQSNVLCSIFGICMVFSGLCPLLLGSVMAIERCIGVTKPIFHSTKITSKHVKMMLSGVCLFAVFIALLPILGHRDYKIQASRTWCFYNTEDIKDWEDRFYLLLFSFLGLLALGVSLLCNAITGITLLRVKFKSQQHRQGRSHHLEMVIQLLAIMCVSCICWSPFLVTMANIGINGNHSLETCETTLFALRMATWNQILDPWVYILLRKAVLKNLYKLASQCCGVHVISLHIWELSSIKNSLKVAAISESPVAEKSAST

A word on the IC50: it is the concentration that inhibits the measured activity by half. For `Cc1c(-c2ccccc2)nc2ccc(Br)cc2c1C(=O)NCC(CCC(=O)O)c1ccccc1Cl` (single isomer, unassigned; (+)) [Ex. 153, (+)-5-{[(6-Bromo-3-methyl-2-phenylquinolin-4-yl)carbonyl]amino}-4-(2-chlorophenyl)pentanoic Acid], the half-inhibitory concentration (IC50) in assay [1] was 9 nM. The “50% Paw Response Threshold, mean” value in assay [2] (Group 2: fluprostenol ~[…] IPL, 0.5 h) was 2.65 g; in assay [2] (Group 2: fluprostenol ~[…] IPL, 2 h) it was 2.403 g; in assay [2] (Group 2: fluprostenol ~[…] IPL, 6 h), 1.89 g; in assay [2] (Group 2: fluprostenol ~[…] IPL, 24 h) it was 3.245 g; in assay [2] (Group 2: fluprostenol ~[…] IPL, BL (baseline)), 4.421 g; in assay [2] (Group 4: fluprostenol ~[…] IPL, 0.5 h), 0.728 g. The “50% Paw Response Threshold, mean” value was determined as 0.716 g in assay [2] (Group 4: fluprostenol ~[…] IPL, 2 h); 1.57 g in assay [2] (Group 4: fluprostenol ~[…] IPL, 6 h); 1.683 g in assay [2] (Group 4: fluprostenol ~[…] IPL, 24 h); 4.215 g in assay [2] (Group 4: fluprostenol ~[…] IPL, BL (baseline)). Besides, the “effect on 50% Paw Response Thresholds compared to vehicle-treated animals” value in assay [2] (0.5 hours after the fluprostenol injection) was “increased the “50% Paw Response Thresholds” 0.5 hours after the fluprostenol injection significantly”; in assay [2] (24 hours after the fluprostenol injection), “increased the “50% Paw Response Thresholds” 24 hours after the fluprostenol injection significantly”.
In the case of `Cc1c(-c2ccccc2)nc2ccc(Br)cc2c1C(=O)NCC(CCC(=O)O)c1c(Cl)ccc(F)c1F` (single isomer, unassigned; (-)) [Example 201, (−)-5-{[(6-Bromo-3-methyl-2-phenylquinolin-4-yl)carbonyl]amino}-4-(6-chloro-2,3-difluorophenyl)pentanoic Acid], in assay [1], the IC50 amounted to 1.2 nM.
`Cc1c(-c2ccccc2)nc2ccc(Br)cc2c1C(=O)NCC(CCC(=O)O)c1ccccc1C(F)(F)F` (single isomer, unassigned; (-)) [Example 204, (−)-5-{[(6-Bromo-3-methyl-2-phenylquinolin-4-yl)carbonyl]amino}-4-[2-(trifluoromethyl)phenyl]pentanoic Acid]: the IC50 in assay [1] stood at 3.7 nM.
In the case of `Cc1ccc(F)cc1C(CCC(=O)O)CNC(=O)c1c(C)c(-c2ccccc2)nc2ccc(Br)cc12` (single isomer, unassigned; (-)) [Example 207, (−)-5-{[(6-Bromo-3-methyl-2-phenylquinolin-4-yl)carbonyl]amino}-4-(5-fluoro-2-methylphenyl)pentanoic Acid], in assay [1], the IC50 was 10 nM.
For the compound `Cc1c(-c2ccccc2)nc2ccc(Br)cc2c1C(=O)NCC(CCC(=O)O)c1ccccc1OC(F)(F)F` (single isomer, unassigned; (-)) [Example 211, (−)-5-{[(6-Bromo-3-methyl-2-phenylquinolin-4-yl)carbonyl]amino}-4-[2-(trifluoromethoxy)phenyl]pentanoic Acid], the IC50 in assay [1] was 1.7 nM.
In the case of `O=C(O)CCC(CNC(=O)c1c(Cl)c(-c2ccccc2)nc2ccc(Br)cc12)c1ccccc1Cl` (single isomer, unassigned; (-)) [Example 213, (−)-5-{[(6-Bromo-3-chloro-2-phenylquinolin-4-yl)carbonyl]amino}-4-(2-chlorophenyl)pentanoic Acid], the IC50 in assay [1] stood at 2.8 nM.
For the compound `O=C(O)CCC(CNC(=O)c1c(Cl)c(-c2ccccc2)nc2ccc(Br)cc12)c1ccccc1C(F)(F)F` (single isomer, unassigned; (-)) [Example 216, (−)-5-{[(6-Bromo-3-chloro-2-phenylquinolin-4-yl)carbonyl]amino}-4-[2-(trifluoromethyl)phenyl]pentanoic Acid], in assay [1], the half-maximal inhibitory concentration (IC50) was 5 nM.
On to `C#Cc1ccc2nc(-c3ccccc3)c(C)c(C(=O)NCC(CCC(=O)O)c3ccccc3Cl)c2c1` (single isomer, unassigned; (-)) [Example 219, (−)-4-(2-Chlorophenyl)-5-{[(6-ethynyl-3-methyl-2-phenylquinolin-4-yl)carbonyl]amino}pentanoic Acid], for which the IC50 in assay [1] worked out at 10 nM.
With `O=C(O)CCC(CNC(=O)c1c(Cl)c(-c2ccccc2)nc2ccc(Br)cc12)c1c(F)ccc(F)c1Cl` (single isomer, unassigned; (-)) [Example 222, (−)-5-{[(6-Bromo-3-chloro-2-phenylquinolin-4-yl)carbonyl]amino}-4-(2-chloro-3,6-difluorophenyl)pentanoic Acid], the IC50 in assay [1] is 0.96 nM.
Take `Cc1c(-c2ccccc2)nc2ccc(Br)cc2c1C(=O)NCC(CCC(=O)O)c1c(F)cccc1C(F)(F)F` (single isomer, unassigned; (-)) [Example 227, (−)-5-{[(6-Bromo-3-methyl-2-phenylquinolin-4-yl)carbonyl]amino}-4-[2-fluoro-6-(trifluoromethyl)phenyl]pentanoic Acid]: the IC50 in assay [1] worked out at 1.6 nM.
Take `Cc1c(-c2ccccc2)nc2ccc(Br)cc2c1C(=O)NCC(CCC(=O)O)c1c(F)c(F)cc(F)c1F` (single isomer, unassigned; (-)) [Example 229, (−)-5-{[(6-Bromo-3-methyl-2-phenylquinolin-4-yl)carbonyl]amino}-4-(2,3,5,6-tetrafluorophenyl)pentanoic Acid]: the half-maximal inhibitory concentration (IC50) in assay [1] was 2.7 nM.
In the case of `Cc1c(-c2ccccc2)nc2ccc(Br)cc2c1C(=O)NCC(CCC(=O)O)c1c(Cl)ccc(Cl)c1Cl` (single isomer, unassigned; (-)) [Example 236, (−)-5-{[(6-Bromo-3-methyl-2-phenylquinolin-4-yl)carbonyl]amino}-4-(2,3,6-trichlorophenyl)pentanoic Acid], the 50% inhibitory concentration (IC50) in assay [1] came out at 2 nM.
Still for that read-out and setting: the value for `Cc1c(-c2ccccc2)nc2ccc(Br)cc2c1C(=O)NCC(C)(CCCC(=O)O)c1ccccc1Cl` (single isomer, unassigned; (-)) [Example 241, (−)-6-{[(6-Bromo-3-methyl-2-phenylquinolin-4-yl)carbonyl]amino}-5-(2-chlorophenyl)-5-methylhexanoic Acid] was 68 nM.
Same read-out and setting: in the case of `Cc1c(-c2ccccc2)nc2ccc(Br)cc2c1C(=O)NCC(C)(CCCC(=O)O)c1ccccc1` (single isomer, unassigned; (-)) [Example 244, (−)-6-{[(6-Bromo-3-methyl-2-phenylquinolin-4-yl)carbonyl]amino}-5-methyl-5-phenylhexanoic Acid] it was 20 nM; in that of `COc1ccccc1C(CNC(=O)c1c(C)c(-c2ccccc2)nc2ccc(Br)cc12)N1CCC(C(=O)O)C1` (stereo not drawn) [Example 246, 1-[2-{[(6-Bromo-3-methyl-2-phenylquinolin-4-yl)carbonyl]amino}-1-(2-methoxyphenyl)ethyl]pyrrolidine-3-carboxylic Acid], 94 nM; in that of `COc1ccccc1[C@H](CNC(=O)c1c(C)c(-c2ccccc2)nc2ccc(Br)cc12)N1CCC(C(=O)O)C1` (stereo partly drawn) [compound 247], 7.2 nM.
Consider `COc1ccccc1[C@@H](CNC(=O)c1c(C)c(-c2ccccc2)nc2ccc(Br)cc12)N1CCC(C(=O)O)C1` (stereo partly drawn) [compound 248], for which the IC50 in assay [1] was found to be 13 nM.
As for `Cc1c(-c2ccccc2)nc2ccc(Br)cc2c1C(=O)NCC(CCC(=O)O)c1ccccc1F` (stereo not drawn) [compound 252], in assay [1], the IC50 is 14 nM.
